From patent publication US20100063047A1 (KALYPSYS, INC., priority 2008, published 2010)

Key:
human H1 = target: T1, human H1 (Homo sapiens, UniProt P35367); assay: In vitro histamine H1 receptor cell-based aequorin bioluminescence antagonist assay; conditions: CHO-K1 cells expressing human H1 and aequorin; histamine at EC80; read-out: H1 Antagonist EC50
T1 construct: host or cells: CHO-K1, also expressing mitochondrion-targeted aequorin
How it was run: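 CHO-K1 cells stably expressing human H1 or H4 plus mitochondrial aequorin (H4 also with Gα16), loaded with 5 μM coelenterazine-h for 4 h at ~21 °C. Compounds preincubated 15 min at room temperature, then histamine at EC80 added.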

human H4 = target: T2, human H4 (Homo sapiens, UniProt Q9H3N8); assay: In vitro histamine H4 receptor cell-based aequorin bioluminescence antagonist assay; conditions: CHO-K1 cells expressing human H4, aequorin and Gα16; histamine at EC80
T2 construct: host or cells: CHO-K1, also expressing mitochondrion-targeted aequorin and human Gα16
Description: In vitro Histamine Receptor Cell-Based Assays
The cell-based assays utilize an aequorin dependent bioluminescence signal. Doubly-transfected, stable CHO—K1 cell lines expressing human H1 or H4, mitochondrion-targeted aequorin, and (H4 only) human G protein Gα16 are obtained from Perkin-Elmer. Cells are maintained in F12 (Ham's) growth medium, containing 10% (vol./vol.) fetal bovine serum, penicillin (100 IU/mL), streptomycin (0.1 mg/mL), zeocin (0.25 mg/mL) and geneticin (0.40 mg/mL). Cell media components are from Invitrogen, Inc. One day prior to assay, the growth medium is replaced with the same, excluding zeocin and geneticin.
For assay preparation, growth medium is aspirated, and cells are rinsed with calcium-free, magnesium-free phosphate-buffered saline, followed by two to three minute incubation in Versene (Invitrogen, Inc.) at 37° C. Assay medium (DMEM:F12 [50:50], phenol-red free, containing 1 mg/mL protease-free bovine serum albumin) is added to collect the released cells, which are then centrifuged. The cell pellet is re-suspended in assay medium, centrifuged once more, and re-suspended in assay medium to a final density of 5×10^6 cells/mL. Coelenterazine-h dye (500 μM in ethanol) is added to a final concentration of 5 μM, and mixed immediately. The conical tube containing the cells is then wrapped with foil to protect the light-sensitive dye. The cells are incubated for four hours further at room temperature (approximately 21° C.) with end-over-end rotation to keep them in suspension.
Just before assay, the dye-loaded cells are diluted to 0.75×10^6 cells/mL (H1 receptor) or 1.5×10^6 cells/mL (H4 receptor) with additional assay medium. Cells are dispensed to 1536 well micro-titer plates at 3 μL/well. To assay receptor antagonism, 60 nl of 100× concentration test compounds in 100% dimethyl sulfoxide (DMSO) are dispensed to the wells, one compound per well, by passive pin transfer, and the plates are incubated for 15 minutes at room temperature. […] The pipette dispenses 3 μL/well of agonist (histamine, at twice the final concentration, where final concentration is a previously determined EC80) in assay medium, with concurrent bioluminescence detection. Agonist activity of test compounds is excluded by separate assays that measure response to test compounds immediately, without added histamine agonist.
CCD image capture on the Lumilux includes a 5 second baseline read prior to agonist addition, and generally a 40 second read per plate after agonist addition. A decrease in bioluminescence signal (measured either as area-under-the-curve, or maximum signal amplitude minus minimum signal amplitude) correlates with receptor antagonism in a dose dependent manner. The negative control is DMSO lacking any test compound. For antagonist assays, the positive controls are diphenhydramine (2-Diphenylmethoxy-N,N-dimethylethylamine, 10 μM final concentration, H1 receptor) or JNJ7777120 (1-[(5-Chloro-1H-indol-2-yl)carbonyl]-4-methyl-piperazine, 10 μM final concentration, H4 receptor). Efficacy is measured as a percentage of positive control activity.

T1 sequence (P35367 whole entry): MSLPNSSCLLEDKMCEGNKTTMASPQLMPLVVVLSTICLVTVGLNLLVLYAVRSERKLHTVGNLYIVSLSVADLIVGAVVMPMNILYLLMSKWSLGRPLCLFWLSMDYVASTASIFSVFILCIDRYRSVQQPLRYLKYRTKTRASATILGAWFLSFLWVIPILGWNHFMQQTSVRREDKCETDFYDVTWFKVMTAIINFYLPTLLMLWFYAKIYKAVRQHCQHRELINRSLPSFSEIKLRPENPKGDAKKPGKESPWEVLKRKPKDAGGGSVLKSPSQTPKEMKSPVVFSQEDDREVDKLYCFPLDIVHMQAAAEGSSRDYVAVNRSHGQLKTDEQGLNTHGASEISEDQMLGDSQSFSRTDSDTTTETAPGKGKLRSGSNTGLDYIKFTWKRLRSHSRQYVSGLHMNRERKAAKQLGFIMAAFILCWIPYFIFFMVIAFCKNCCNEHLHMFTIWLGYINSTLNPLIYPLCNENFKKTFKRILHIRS

| EC50 (human H1) [µM] | EC50 (human H4) [µM] | Compound |
| --- | --- | --- |
| > 10 | > 10 | Cc1csc2ncnc(NCC#N)c12 [Example 52, 2-({5-methylthieno[2,3-d]pyrimidin-4-yl}amino)acetonitrile] |
| > 10 | > 10 | Cc1csc2ncnc(N(C)C(Cc3ccccc3)c3ccccc3)c12 (stereo not shown) [Example 278, N-(1,2-diphenylethyl)-N,5-dimethylthieno[2,3-d]pyrimidin-4-amine] |
|  | > 10 | c1ccc(CN2CCN(c3ncnc4sc5c(c34)CCCC5)CC2)cc1 [Example 12, 4-(4-benzylpiperazin-1-yl)-5,6-tetrahydrobenzo[b]thiophenethieno[2,3-d]pyrimidine] |
| > 10 | > 10 | Cc1csc2ncnc(N(CCO)CCO)c12 [Example 198, 2-[(2-hydroxyethyl)({5-methylthieno[2,3-d]pyrimidin-4-yl})amino]ethan-1-ol] |
| > 10 | > 10 | Cc1csc2ncnc(N3CCCC4CCCCC43)c12 (stereo not shown) [Example 222, 1-{5-methylthieno[2,3-d]pyrimidin-4-yl}-decahydroquinoline] |
| > 10 | > 10 | COc1ccc(N2CCN(c3ncnc4scc(C)c34)CC2)cc1 [Example 261, 1-(4-methoxyphenyl)-4-{5-methylthieno[2,3-d]pyrimidin-4-yl}piperazine] |
| > 10 | > 10 | Cc1csc2ncnc(N3CCN(c4ccccn4)CC3)c12 [Example 234, 1-{5-methylthieno[2,3-d]pyrimidin-4-yl}-4-(pyridin-2-yl)piperazine] |
| > 10 | > 10 | Cc1csc2ncnc(N(Cc3cccnc3)Cc3cccnc3)c12 [Example 268, 5-methyl-N,N-bis(pyridin-3-ylmethyl)thieno[2,3-d]pyrimidin-4-amine] |
| > 10 | > 10 | Cc1csc2ncnc(N(CCCO)Cc3ccccn3)c12 [Example 237, 3-({5-methylthieno[2,3-d]pyrimidin-4-yl}(pyridin-2-ylmethyl)amino)propan-1-ol] |
|  | > 10 | Cc1csc2ncnc(N(C)CCc3ccccn3)c12 [Example 220, N,5-dimethyl-N-[2-(pyridin-2-yl)ethyl]thieno[2,3-d]pyrimidin-4-amine] |
| > 10 | > 10 | Cc1csc2ncnc(N(C)C3CCCCC3)c12 [Example 200, N-cyclohexyl-N,5-dimethylthieno[2,3-d]pyrimidin-4-amine] |
| > 10 | > 10 | Cc1csc2ncnc(NCCN3CCOCC3)c12 [Example 109, 5-methyl-N-[2-(morpholin-4-yl)ethyl]thieno[2,3-d]pyrimidin-4-amine] |
| > 10 | > 10 | Cc1csc2ncnc(N3CCN(c4ccccc4F)CC3)c12 [Example 245, 1-(2-fluorophenyl)-4-{5-methylthieno[2,3-d]pyrimidin-4-yl}piperazine] |
| > 10 | > 10 | CCN(CCO)c1ncnc2scc(C)c12 [Example 188, 2-[ethyl({5-methylthieno[2,3-d]pyrimidin-4-yl})amino]ethan-1-ol] |
| > 10 | > 10 | Cc1csc2ncnc(N(Cc3ccccc3)C(C)C)c12 [Example 225, N-benzyl-5-methyl-N-(propan-2-yl)thieno[2,3-d]pyrimidin-4-amine] |
|  | > 10 | Cc1ccc(C)c(N2CCN(c3ncnc4scc(C)c34)CC2)c1 [Example 259, 1-(2,5-dimethylphenyl)-4-{5-methylthieno[2,3-d]pyrimidin-4-yl}piperazine] |
|  | > 10 | Cc1csc2ncnc(N3CCN(c4ccc(C#N)cn4)CC3)c12 [Example 253, 6-(4-{5-methylthieno[2,3-d]pyrimidin-4-yl}piperazin-1-yl)pyridine-3-carbonitrile] |
|  | > 10 | Cc1csc2ncnc(N3CCC(N(C)C)C3)c12 (stereo not shown) [Example 202, N,N-dimethyl-1-{5-methylthieno[2,3-d]pyrimidin-4-yl}pyrrolidin-3-amine] |

| EC50 (human H1) [µM] | EC50 (human H4) [µM] | Compound |
| --- | --- | --- |
|  | > 10 | Cc1csc2ncnc(N3CCN(c4ccc(Cl)cc4)CC3)c12 [Example 266, 1-(4-chlorophenyl)-4-{5-methylthieno[2,3-d]pyrimidin-4-yl}piperazine] |
| > 10 |  | Cc1csc2ncnc(C(=O)CCc3ccc(Cl)cc3)c12 [Example 25, 3-(4-chlorophenyl)-1-(5-methylthieno[2,3-d]pyrimidin-4-yl)propan-1-one] |
| > 10 |  | CCc1cc2c(N3CCN(Cc4ccccc4)CC3)ncnc2s1 [Example 14, 4-(4-benzylpiperazin-1-yl)-6-ethylthieno[2,3-d]pyrimidine] |
| > 10 |  | Cc1ccc(CNc2ncnc3scc(C)c23)cc1C [Example 118, N-[(3,4-dimethylphenyl)methyl]-5-methylthieno[2,3-d]pyrimidin-4-amine] |
| > 10 |  | Cc1csc2ncnc(NCC3CC3)c12 [Example 59, N-(cyclopropylmethyl)-5-methylthieno[2,3-d]pyrimidin-4-amine] |
| > 10 |  | CCCCNc1ncnc2scc(-c3ccccc3)c12 [Example 47, N-butyl-5-phenylthieno[2,3-d]pyrimidin-4-amine] |
| > 10 |  | Cc1csc2ncnc(NCCCN(C)c3ccccc3)c12 [Example 157, N-methyl-N-[3-({5-methylthieno[2,3-d]pyrimidin-4-yl}amino)propyl]aniline] |
| > 10 |  | Cc1csc2ncnc(N3CCC(NC(=O)OC(C)(C)C)C3)c12 (stereo not shown) [Example 251, tert-butyl N-(1-{5-methylthieno[2,3-d]pyrimidin-4-yl}pyrrolidin-3-yl)carbamate] |
| > 10 |  | COc1cccc(CNc2ncnc3scc(C)c23)c1 [Example 125, N-[(3-methoxyphenyl)methyl]-5-methylthieno[2,3-d]pyrimidin-4-amine] |
| > 10 |  | Cc1csc2ncnc(NCc3ccc4c(c3)OCO4)c12 [Example 141, N-(2H-1,3-benzodioxol-5-ylmethyl)-5-methylthieno[2,3-d]pyrimidin-4-amine] |
| > 10 |  | COc1ccc(CCNc2ncnc3sccc23)cc1 [Example 48, N-[2-(4-methoxyphenyl)ethyl]thieno[2,3-d]pyrimidin-4-amine] |
| > 10 |  | Cc1csc2ncnc(NCCc3ccc(O)cc3)c12 [Example 121, 4-[2-({5-methylthieno[2,3-d]pyrimidin-4-yl}amino)ethyl]phenol] |
| > 10 |  | Cc1csc2ncnc(NCCc3ccccc3Cl)c12 [Example 148, N-[2-(2-chlorophenyl)ethyl]-5-methylthieno[2,3-d]pyrimidin-4-amine] |
| > 10 |  | Cc1csc2ncnc(NCC3CCCO3)c12 (stereo not shown) [Example 77, 5-methyl-N-(oxolan-2-ylmethyl)thieno[2,3-d]pyrimidin-4-amine] |
| > 10 |  | COc1ccccc1CNc1ncnc2scc(C)c12 [Example 123, N-[(2-methoxyphenyl)methyl]-5-methylthieno[2,3-d]pyrimidin-4-amine] |
| > 10 |  | Cc1csc2ncnc(NCCc3ccc(Cl)cc3)c12 [Example 46, N-[2-(4-chlorophenyl)ethyl]-5-methylthieno[2,3-d]pyrimidin-4-amine] |
| > 10 |  | Cc1ccc(CCNc2ncnc3scc(C)c23)cc1 [Example 19] |
| > 10 |  | Cc1csc2ncnc(NCc3ccc(Cl)cc3)c12 [Example 131, N-[(4-chlorophenyl)methyl]-5-methylthieno[2,3-d]pyrimidin-4-amine] |

| Compound | EC50 (human H1) [µM] | EC50 (human H4) [µM] |
| --- | --- | --- |
| Cc1csc2ncnc(N3C[C@@H](C)N[C@@H](C)C3)c12 [Example 203, (3R,5S)-3,5-dimethyl-1-{5-methylthieno[2,3-d]pyrimidin-4-yl}piperazine] | > 10 | > 10 |
| CN1CCC(N(C)c2ncnc3scc(-c4ccc(Br)cc4)c23)CC1 [Example 13, 5-(4-bromophenyl)-N-methyl-N-(1-methylpiperidin-4-yl)thieno[2,3-d]pyrimidin-4-amine] |  | > 10 |
